Results reported in PMC6446049 (Alzheimer's & Dementia : Translational Research & Clinical …, 2019).

Key:
[1] = tested on: healthy elderly subjects (scopolamine challenge); assay: N-back test in scopolamine challenge; format: in vivo, human; conditions: for N-back, 0-back accuracy / N-back, 0-back reaction time / N-back, 1-back accuracy / N-back, 2-back accuracy / N-back, 2-back reaction time: vs placebo (95% CI), scopolamine 0.3 mg i.v.
[2] = tested on: healthy elderly subjects (scopolamine challenge); assay: Saccadic eye movements in scopolamine challenge; format: in vivo, human; conditions: for Saccadic inaccuracy / Saccadic reaction time: vs placebo (95% CI), scopolamine 0.3 mg i.v.
[3] = tested on: healthy elderly subjects (scopolamine challenge); assay: Adaptive tracking; format: in vivo, human; conditions: for Adaptive tracking: vs placebo (95% CI), scopolamine 0.3 mg i.v.
[4] = tested on: healthy elderly subjects (scopolamine challenge); assay: Safety assessment: adverse events, vital signs, ECG, laboratory; format: in vivo, human; conditions: scopolamine 0.3 mg i.v.
[5] = Plasma pharmacokinetics; conditions: noncompartmental analysis
[6] = tested on: patients with mild-to-moderate Alzheimer's disease; conditions: cited from earlier work
[7] = tested on: healthy volunteers; conditions: single oral doses; cited from earlier work
[8] = tested on: healthy subjects; conditions: scopolamine alone, previous study; cited from earlier work
[9] = tested on: healthy elderly subjects (scopolamine challenge); assay: Body sway meter; format: in vivo, human; conditions: scopolamine alone 0.3 mg i.v.
[10] = tested on: healthy elderly subjects (scopolamine challenge); assay: Simple reaction time task in scopolamine challenge; format: in vivo, human; conditions: scopolamine alone 0.3 mg i.v.
[11] = tested on: healthy elderly subjects (scopolamine challenge); assay: Pharmaco-electroencephalography in scopolamine challenge; format: in vivo, human; conditions: scopolamine alone 0.3 mg i.v.
[12] = tested on: healthy volunteers; conditions: 0.5 mg intravenously; healthy young volunteers; cited from earlier work
[13] = DPZ 2.5 mg + EVP-6124 placebo, N 11
[14] = DPZ 5.0 mg + EVP-6124 placebo, N 10
[15] = DPZ placebo + EVP-6124 0.3 mg, N 12
[16] = DPZ placebo + EVP-6124 1 mg, N 11
[17] = DPZ placebo + EVP-6124 2 mg, N 12
[18] = DPZ placebo + EVP-6124 4 mg, N 12

COc1cc2c(cc1OC)C(=O)C(CC1CCN(Cc3ccccc3)CC1)C2 (centres unmarked) [DPZ, donepezil, reference compound]
N-back, 0-back accuracy ([1]; DPZ 2.5 mg + EVP-6124 placebo): 0.03 (−0.05, 0.11) P = .4512% | N-back, 0-back reaction time ([1]; DPZ 2.5 mg + EVP-6124 placebo): −24 (−48, 1) P = .0615 ms | N-back, 1-back accuracy ([1]; DPZ 2.5 mg + EVP-6124 placebo): −0.00 (−0.12, 0.11) P = .9598% | N-back, 2-back accuracy ([1]; DPZ 2.5 mg + EVP-6124 placebo): 0.04 (−0.08, 0.17) P = .5034% | N-back, 2-back reaction time ([1]; DPZ 2.5 mg + EVP-6124 placebo): −27 (−70, 16) P = .2115 ms | N-back, 0-back accuracy ([1]; DPZ 5 mg + EVP-placebo): 0.04 (−0.02, 0.10) P = .1614% | N-back, 0-back reaction time ([1]; DPZ 5 mg + EVP-placebo): −18 (−36, −1) P = .0386 ms | N-back, 1-back accuracy ([1]; DPZ 5 mg + EVP-placebo): 0.03 (−0.05, 0.11) P = .4286% | N-back, 2-back accuracy ([1]; DPZ 5 mg + EVP-placebo): 0.02 (−0.08, 0.11) P = .7469% | N-back, 2-back reaction time ([1]; DPZ 5 mg + EVP-placebo): 35 (−1, 70) P = .0541 ms | Saccadic inaccuracy ([2]; DPZ 2.5 mg + EVP-6124 placebo): −1.4 (−2.7, −0.1) P = .0311% | Saccadic reaction time ([2]; DPZ 2.5 mg + EVP-6124 placebo): −4 (−20, 11) P = .5539 ms | Saccadic inaccuracy ([2]; DPZ 5 mg + EVP-placebo): 0.0 (−0.9, 1.0) P = .9433% | Saccadic reaction time ([2]; DPZ 5 mg + EVP-placebo): −11 (−20, −2) P = .0190 ms | Adaptive tracking ([3]; DPZ 2.5 mg + EVP-6124 placebo): 1.49 (0.20, 2.77) P = .0247% | Adaptive tracking ([3]; DPZ 5 mg + EVP-placebo): 0.72 (−0.76, 2.20) P = .3297% | Headache, treatment-related adverse event, subjects n (%) [4, 13]: 1 (9.1%) | Somnolence, treatment-related adverse event, subjects n (%) [4, 13]: 7 (63.6%) | Disturbance in attention, treatment-related adverse event, subjects n (%) [4, 14]: 1 (10.0%) | Dizziness, treatment-related adverse event, subjects n (%) [4, 14]: 6 (60.0%) | Dry mouth, treatment-related adverse event, subjects n (%) [4, 14]: 6 (60.0%) | Headache, treatment-related adverse event, subjects n (%) [4, 14]: 1 (10.0%) | Somnolence, treatment-related adverse event, subjects n (%) [4, 14]: 6 (60.0%)

O=C(N[C@H]1CN2CCC1CC2)c1cc2cccc(Cl)c2s1 [EVP-6124]
N-back, 0-back accuracy ([1]; DPZ placebo + EVP-6124 0.3 mg): 0.02 (−0.04, 0.08) P = .5073% | N-back, 0-back reaction time ([1]; DPZ placebo + EVP-6124 0.3 mg): 8 (−12, 29) P = .4004 ms | N-back, 1-back accuracy ([1]; DPZ placebo + EVP-6124 0.3 mg): 0.02 (−0.05, 0.10) P = .5558% | N-back, 2-back accuracy ([1]; DPZ placebo + EVP-6124 0.3 mg): −0.02 (−0.11, 0.07) P = .6878% | N-back, 2-back reaction time ([1]; DPZ placebo + EVP-6124 0.3 mg): −5 (−36, 25) P = .7210 ms | N-back, 0-back accuracy ([1]; DPZ placebo + EVP-6124 1 mg): 0.04 (−0.03, 0.10) P = .2318% | N-back, 0-back reaction time ([1]; DPZ placebo + EVP-6124 1 mg): −17 (−37, 4) P = .1085 ms | N-back, 1-back accuracy ([1]; DPZ placebo + EVP-6124 1 mg): 0.04 (−0.04, 0.12) P = .3062% | N-back, 2-back accuracy ([1]; DPZ placebo + EVP-6124 1 mg): 0.01 (−0.08, 0.10) P = .8796% | N-back, 2-back reaction time ([1]; DPZ placebo + EVP-6124 1 mg): −3 (−33, 28) P = .8693 ms | N-back, 0-back accuracy ([1]; DPZ placebo + EVP-6124 2 mg): 0.05 (−0.01, 0.11) P = .0818% | N-back, 0-back reaction time ([1]; DPZ placebo + EVP-6124 2 mg): −5 (−25, 15) P = .6209 ms | N-back, 2-back accuracy ([1]; DPZ placebo + EVP-6124 2 mg): 0.03 (−0.06, 0.13) P = .4557% | N-back, 2-back reaction time ([1]; DPZ placebo + EVP-6124 2 mg): 1 (−29, 31) P = .9305 ms | N-back, 0-back reaction time ([1]; DPZ placebo + EVP-6124 4 mg): −16 (−36, 4) P = .1151 ms | N-back, 1-back accuracy ([1]; DPZ placebo + EVP-6124 4 mg): 0.05 (−0.03, 0.12) P = .2385% | N-back, 2-back accuracy ([1]; DPZ placebo + EVP-6124 4 mg): −0.02 (−0.11, 0.07) P = .7181% | N-back, 2-back reaction time ([1]; DPZ placebo + EVP-6124 4 mg): −8 (−39, 22) P = .5733 ms | Saccadic inaccuracy ([2]; DPZ placebo + EVP-6124 0.3 mg): 0.6 (−0.2, 1.4) P = .1224% | Saccadic reaction time ([2]; DPZ placebo + EVP-6124 0.3 mg): −4 (−13, 5) P = .4018 ms | Saccadic inaccuracy ([2]; DPZ placebo + EVP-6124 1 mg): 0.0 (−0.8, 0.8) P = .9525% | Saccadic reaction time ([2]; DPZ placebo + EVP-6124 1 mg): −2 (−12, 7) P = .5871 ms | Saccadic inaccuracy ([2]; DPZ placebo + EVP-6124 2 mg): −0.1 (−0.9, 0.6) P = .7196% | Saccadic reaction time ([2]; DPZ placebo + EVP-6124 2 mg): −3 (−12, 6) P = .4605 ms | Saccadic inaccuracy ([2]; DPZ placebo + EVP-6124 4 mg): 0.3 (−0.5, 1.1) P = .4213% | Saccadic reaction time ([2]; DPZ placebo + EVP-6124 4 mg): 3 (−6, 11) P = .5707 ms | Adaptive tracking ([3]; DPZ placebo + EVP-6124 0.3 mg): −1.23 (−2.80, 0.34) P = .1200% | Adaptive tracking ([3]; DPZ placebo + EVP-6124 1 mg): 0.03 (−1.56, 1.63) P = .9671% | Adaptive tracking ([3]; DPZ placebo + EVP-6124 2 mg): −0.83 (−2.33, 0.67) P = .2691% | Adaptive tracking ([3]; DPZ placebo + EVP-6124 4 mg): −0.26 (−1.76, 1.24) P = .7281% | EVP-6124 pharmacokinetic parameters with or without donepezil [5]: similar | reason why phase III trials were halted in 2015 [6]: gastrointestinal adverse events | dose at which effects on the Digit Symbol Substitution Test were most prevalent [7]: 20 mg | Disturbance in attention, treatment-related adverse event, subjects n (%) [4, 15]: 2 (16.7%) | Dizziness, treatment-related adverse event, subjects n (%) [4, 15]: 6 (50.0%) | Dry mouth, treatment-related adverse event, subjects n (%) [4, 15]: 8 (66.7%) | Gait disturbance, treatment-related adverse event, subjects n (%) [4, 15]: 1 (8.3%) | Headache, treatment-related adverse event, subjects n (%) [4, 15]: 1 (8.3%) | Somnolence, treatment-related adverse event, subjects n (%) [4, 15]: 6 (50.0%) | Disturbance in attention, treatment-related adverse event, subjects n (%) [4, 16]: 2 (18.2%) | Dizziness, treatment-related adverse event, subjects n (%) [4, 16]: 3 (27.3%) | Gait disturbance, treatment-related adverse event, subjects n (%) [4, 16]: 1 (9.1%) | Headache, treatment-related adverse event, subjects n (%) [4, 16]: 3 (27.3%) | Somnolence, treatment-related adverse event, subjects n (%) [4, 16]: 5 (45.5%) | Disturbance in attention, treatment-related adverse event, subjects n (%) [4, 17]: 1 (8.3%) | Dizziness, treatment-related adverse event, subjects n (%) [4, 17]: 4 (33.3%) | Dry mouth, treatment-related adverse event, subjects n (%) [4, 17]: 10 (83.3%) | Gait disturbance, treatment-related adverse event, subjects n (%) [4, 17]: 1 (8.3%) | Somnolence, treatment-related adverse event, subjects n (%) [4, 17]: 8 (66.7%) | Disturbance in attention, treatment-related adverse event, subjects n (%) [4, 18]: 2 (16.7%) | Dizziness, treatment-related adverse event, subjects n (%) [4, 18]: 5 (41.7%) | Dry mouth, treatment-related adverse event, subjects n (%) [4, 18]: 10 (83.3%) | Gait disturbance, treatment-related adverse event, subjects n (%) [4, 18]: 3 (25.0%) | Headache, treatment-related adverse event, subjects n (%) [4, 18]: 1 (8.3%) | Somnolence, treatment-related adverse event, subjects n (%) [4, 18]: 7 (58.3%)

CN1[C@@H]2C[C@@H](OC(=O)[C@H](CO)c3ccccc3)C[C@H]1[C@@H]1O[C@@H]12 [scopolamine]
reduction of adaptive tracking scores [8]: 42% | performance on N-back ([1]; scopolamine alone 0.3 mg i.v.): worsened performance | performance on saccadic eye movements ([2]; scopolamine alone 0.3 mg i.v.): worsened performance | performance on body sway [9]: worsened performance | performance on adaptive tracking ([3]; scopolamine alone 0.3 mg i.v.): worsened performance | performance on SRT [10]: worsened performance | EEG alpha frequency [11]: decrease | EEG beta frequency [11]: did not affect | EEG delta frequency [11]: increase | EEG theta frequency [11]: did not affect | cognitive effect of scopolamine [12]: significant cognitive deficits
